Test results reported in article PMC8279479, “Application of Alanine Scanning to Determination of Amino Acids Essential for Peptide Adsorption at the Solid/Solution Interface and Binding to the Receptor: Surface-Enhanced Raman/Infrared Spectroscopy versus Bioactivity Assays” (Journal of Medicinal Chemistry, 2021).
Where no end group is shown, it is not given here.

Experiments:
human BB1 receptor = human BB1 receptor (Homo sapiens, UniProt P28336); test: Intracellular inositol monophosphate (IP-One HTRF) assay, HEK-293 cells overexpressing BB1 receptor; type: cell-based; conditions: BB1R HEK-293
Chain of human BB1 receptor (P28336 whole entry): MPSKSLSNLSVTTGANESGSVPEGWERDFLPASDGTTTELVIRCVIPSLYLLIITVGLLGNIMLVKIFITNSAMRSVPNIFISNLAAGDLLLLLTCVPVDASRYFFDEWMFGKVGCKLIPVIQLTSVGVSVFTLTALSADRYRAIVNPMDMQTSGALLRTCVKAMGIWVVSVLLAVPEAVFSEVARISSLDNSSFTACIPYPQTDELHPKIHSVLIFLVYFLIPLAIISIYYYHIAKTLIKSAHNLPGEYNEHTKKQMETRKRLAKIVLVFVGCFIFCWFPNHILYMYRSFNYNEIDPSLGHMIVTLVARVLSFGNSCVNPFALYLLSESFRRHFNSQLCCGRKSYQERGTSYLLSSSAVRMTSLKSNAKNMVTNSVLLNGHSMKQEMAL
Procedure: (§1) Additionally, reference compounds BIM23042 and PD176252 (both from Tocris) antagonists of BB1 and BB2 receptors were used in a concentration of 10 μM (Figure 7).
(§2) The human BB1 receptor NM_002511.3 (GenScript) and BB2 receptor NM_002091 (cDNA Resource Center) sequences in pcDNA 3.1 + plasmids were introduced into the host cell by lipofection (Lipofectamine Reagent 3000, Thermo Fisher Scientific). Then, the transfected cells were selected with G-418 antibiotic at a dose of 500 μg/mL. Cells were grown under standard cell culture conditions (37 °C, 5% CO2) in DMEM supplemented with 10% FBS and Glutamax.
(§3) Receptor activity was determined by measuring the intracellular inositol monophosphate concentration using a homogeneous time-resolved fluorescence IP-one kit from Cis-bio, according to the manual. Briefly, 24 h before assay, cells were grown in an FBS-free DMEM medium. Then, the cells were scraped and centrifuged. The cell pellet was suspended in Hanks-HEPES (130 mM NaCl, 5.4 mM KCl, 1.8 mM CaCl2, 0.8 mM MgSO4, 0.9 mM NaH2PO4, 20 mM HEPES, LiCl 50 mM, and 3.25 mM glucose; pH 7.4). […] The cell suspension was then mixed with 5 μL of the IP1-acceptor conjugate and 5 μL of the anti-IP1-donor conjugate. After 1 h incubation at RT, fluorescence was read at 620 and 665 nm (Tecan; Infinite M1000). Results were calculated as the ratio (665 nm/620 nm) multiplied by 10^4. The signal was inversely proportional to the concentration of IP1 in the samples. Each sample was prepared in triplicate. Data were analyzed using GraphPad Prism version 5.04 for Windows (GraphPad software).

human BB2 receptor = human BB2 receptor (Homo sapiens, UniProt P30550); test: Intracellular inositol monophosphate (IP-One HTRF) assay, HEK-293 cells overexpressing BB2 receptor; type: cell-based; conditions: BB2R HEK-293
Chain of human BB2 receptor (P30550 whole entry): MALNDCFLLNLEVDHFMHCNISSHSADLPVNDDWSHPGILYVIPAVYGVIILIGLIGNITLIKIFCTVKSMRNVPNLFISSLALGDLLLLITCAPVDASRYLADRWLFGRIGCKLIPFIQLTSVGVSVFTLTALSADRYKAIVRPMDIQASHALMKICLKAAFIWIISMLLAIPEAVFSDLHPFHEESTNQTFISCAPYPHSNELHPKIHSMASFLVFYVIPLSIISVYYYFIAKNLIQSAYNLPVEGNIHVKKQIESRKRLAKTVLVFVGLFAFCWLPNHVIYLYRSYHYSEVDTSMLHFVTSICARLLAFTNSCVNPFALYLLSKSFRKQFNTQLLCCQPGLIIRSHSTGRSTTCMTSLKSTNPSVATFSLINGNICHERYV
Procedure: as §1, §2, §3

COc1ccc(C2(CNC(=O)[C@](C)(Cc3c[nH]c4ccccc34)NC(=O)Nc3ccc([N+](=O)[O-])cc3)CCCCC2)nc1 [PD176252]
Effect of reference antagonist alone on basal receptor activity (IP1) (human BB1 receptor; reference compound 10 μM alone (Figure 7A)): inhibited the basal activity | Effect of reference antagonist on IP1 concentration in the presence of agonist (human BB1 receptor; reference compound 10 μM with BN 150 nM (Figure 7A)): downregulated IP1 concentration to control level | Effect of reference antagonist alone on basal receptor activity (IP1) (human BB2 receptor; reference compound 10 μM alone (Figure 7B)): inhibited the basal activity | Effect of reference antagonist on IP1 concentration in the presence of agonist (human BB2 receptor; reference compound 10 μM with BN 150 nM (Figure 7B)): significantly reduced its level

Asn-Gln-Ala-Ala-Val-Gly-His-Leu-Met-NH2 (NQAAVGHLM-NH2) [[Ala^3]BN^6–14]
Agonist effect of compound alone on intracellular IP1 (human BB1 receptor; compound alone 25 μM, 1 h, 37 °C (Figure 7A)): little change in the activity | Agonist effect of compound alone on intracellular IP1 (human BB2 receptor; compound alone 25 μM, 1 h, 37 °C (Figure 7B)): little change in the activity
